The values below come from PMC10056636, “3-Amino-Substituted Analogues of Fusidic Acid as Membrane-Active Antibacterial Compounds” (Membranes, 2023).

For orientation: MIC means the lowest concentration found to suppress growth. In general, CC50 refers to the concentration giving 50% cytotoxicity. High values mean lower toxicity to the cells, low ones greater toxicity to the cells.

A short description of data set [1]: Calcein release from liposomes. The settings on record: for τ (characteristic time of marker release): 5 μg/mL; for IFmax (maximum release of fluorescent marker from lipid vesicles): 5 μg/mL of test compound. As for the experimental part:
Calcein release from liposomes. Small unilamellar vesicles (Ø100 nm) composed of 1,2-dioleoyl-sn-glycero-3-phosphocholine (DOPC) or 1,2-dioleoyl-sn-glycero-3-phospho-(1′-rac-glycerol) (DOPG) and loaded with the fluorescent dye calcein (35 mM) were obtained using a mini-extruder (Avanti Polar Lipids, Alabaster, AL, USA). At this concentration, calcein fluorescence inside the liposomes is self-quenched. The calcein that was not entrapped in the vesicles was removed by gel filtration with calcein-free solution (150 mM KCl, 10 mM HEPES, pH 7.4). An increase in the free calcein fluorescence in a surrounding medium is a measure of the disturbance of membrane integrity, in the absence and presence of test compounds (4, 20, 22). The control samples were not modified. Experimental samples were treated by 5 µg/mL of the compounds (4, 20, 22). Fluorescence of released calcein was determined on a Fluorat-02-Panorama spectrofluorimeter (Lumex, Saint-Petersburg, Russia) (excitation wavelength of 490 nm, emission wavelength of 520 nm). The detergent Triton X-100 (at a final concentration of 1%) was added at the end of experiments for complete disruption of liposomes (complete release of calcein from the vesicles).
The relative intensity of calcein fluorescence (IF, %) was calculated as:(2) IF=I−I0/Imax/0.9−I0⋅100% where I and I0 are the calcein fluorescence intensities in the presence and absence of test compounds, respectively, and Imax is the maximal fluorescence after treatment of liposomes with Triton X-100 (a factor of 0.9 was introduced to account for sample dilution by Triton X-100).

For data set [2], the system named is Candida albicans (ATCC 90028). In words: Antifungal growth inhibition (MIC, CO-ADD). Type of data set: cell-based. The settings on record: C. albicans, inhibition ≥80%, two replicates per cell.
The subject of data set [3] is Cryptococcus neoformans (ATCC 208821). The data set is described as follows: Antifungal growth inhibition (MIC, CO-ADD). The conditions noted are these: inhibition ≥70%, two replicates per cell.
Method: Antimicrobial, cytotoxicity, and hemolytic activity screening of the synthesized derivatives was carried out in the CO-ADD (The Community for Antimicrobial Drug Discovery) (http://www.co-add.org, accessed on 24 November 2020) and included analysis for antibacterial properties, cytotoxicity, and hemolytic activity.
The hit confirmation test included five bacteria, Escherichia coli (ATCC 25922), Klebsiella pneumoniae (ATCC 700603), Acinetobacter baumannii (ATCC 19606), Pseudomonas aeruginosa (ATCC 27853), and Staphylococcus aureus (ATCC 43300), and two fungi, Candida albicans (ATCC 90028) and Cryptococcus neoformans (ATCC 208821). […] The compounds were also screened for hemolysis of human red blood cells (human whole blood, strain ARCBS 5400 00150).
Samples were prepared in DMSO and water to a final testing concentration of 32 µg/mL or 20 µM (unless otherwise indicated in the data sheet) and serially diluted twofold up to 8 times. Each sample concentration was prepared in 384-well plates: non-binding surface plate (NBS; Corning 3640) for each bacterial/fungal strain, tissue-culture treated (TC-treated; Corning 3712/3764) black for mammalian cell types and polypropylene 384-well plates (PP; Corning 3657) for hemolysis assays. The final DMSO concentration was maintained to a maximum of 0.5%. All sample preparation procedures were performed using liquid-handling robots. All screening was performed as two replica (n = 2), with both replicas on different assay plates, but from single plating and performed in a single screening experiment (microbial incubation). In addition, two values are used as quality controls for individual plates: Z′-Factor [1 − (3* (sd(NegCtrl) + sd(PosCtrl))/(average(PosCtrl)-average(NegCtrl)))] and standard antibiotic controls at different concentrations (>MIC and <MIC).
Fungi strains were cultured for 3 days on yeast extract-peptone dextrose (YPD) agar at 30 °C. A yeast suspension of 1 × 10^6 to 5 × 10^6 CFU/mL (as determined by OD530) was prepared from five colonies. The suspension was subsequently diluted and added to each well containing a test compound, giving a final cell density of fungi suspension of 2.5 × 10^3 CFU/mL and a total volume of 50 µL. All plates were covered and incubated at 35 °C for 36 h without shaking.
The absorbance was measured using a Biotek Multiflo Synergy HTX plate reader. In both cases, the percentage of growth inhibition was calculated for each well, using the negative control (media only) and positive control (fungi without inhibitors) in the same plate. […] In addition, the maximal percentage of growth inhibition is reported as DMax, indicating any compounds with marginal activity.
Fluconazole was used as a positive fungal inhibitor standard for C. albicans and C. neoformans. […] The quality control (QC) of the assays was performed using Z′-factors calculated from the negative (media only) and positive controls (bacterial, fungal, or cell culture without inhibitor) and the standards.
Data set [4] relates to human embryonic kidney cell line HEK293 (ATCC CRL-1573). The data set is described as follows: in vitro. The format is cell-based. The settings on record: human, 20 h.
Data set [5] can be described thus: in vitro. Type of data set: cell-based, human. The settings on record: human, CC50.
Setting [6] is: Candida albicans, ATCC90028, read-out: MIC.

Values after ≈ are worked out from the molar mass of the structure shown. Values joined by “and” are separate entries in the source; they are usually repeats but may differ in a detail not shown here. Equal entries are not always repeated. Where two headings read alike, the source gives them in different places.

Consider `COC(=O)/C(CCC=C(C)C)=C1\[C@@H](OC(C)=O)C[C@@]2(C)[C@@H]1C[C@@H](O)[C@@H]1[C@@]3(C)CC[C@H](NCCCNCCCCNCCCN)[C@@H](C)C3CC[C@@]12C` (stereo partly drawn) [Compound 22, Methyl (2Z)-2-[(3β,4α,8α,11α,14β,16β)-16-(acetyloxy)-3-{[3-({4-[(3-aminopropyl)amino]butyl}amino)propyl]amino}-11-hydroxy-4,8,10,14-tetramethylgonan-17-ylidene]-6-methylhept-5-enoate], for which the figures for the “τ (characteristic time of marker release)” value in data set [1] (DOPC) and in data set [1] (DOPG) were 0.7 ± 0.2 min and 9.8 ± 0.4 min, respectively. In addition, the entries for the “IFmax (maximum release of fluorescent marker from lipid vesicles)” value in data set [1] (DOPC) and in data set [1] (DOPG) were 95 ± 2% and 83 ± 3%, respectively. In addition, the MIC was 32 µg/mL (≈ 44.8 µM) in data set [2]; 32 µg/mL (≈ 44.8 µM) in data set [2] (setting [6]); 1.0 µg/mL and 2.0 µg/mL in data set [3] (C. neoformans); 1 µg/mL (≈ 1.4 µM) in data set [3] (Cryptococcus neoformans, ATCC208821, C. neoformans). Moreover, in data set [4], the CC50 came to 18.1 µg/mL (≈ 25.3 µM). Besides, the cytotoxic concentration (CC50) at 20 h in data set [5] was determined as 18.8 µg/mL (≈ 26.3 µM).

With `COC(=O)/C(CCC=C(C)C)=C1\[C@@H](OC(C)=O)C[C@@]2(C)[C@@H]1C[C@@H](O)[C@@H]1[C@@]3(C)CC[C@H](NCCCNCCCCN)[C@@H](C)C3CC[C@@]12C` (stereo partly drawn) [Compound 20, Methyl (2Z)-2-[(3β,4α,8α,11α,14β,16β)-16-(acetyloxy)-3-({3-[(4aminobutyl)amino]propyl}amino)-11-hydroxy-4,8,10,14-tetramethylgonan-17-ylidene]-6-methylhept-5-enoate], the “τ (characteristic time of marker release)” value in data set [1] (DOPC) is 0.5 ± 0.2 min; in data set [1] (DOPG), 1.0 ± 0.1 min. Besides, the “IFmax (maximum release of fluorescent marker from lipid vesicles)” value in data set [1] (DOPC) was 88 ± 3%; in data set [1] (DOPG), 87 ± 4%. Also, the MIC in data set [2] and in data set [2] (setting [6]) was 32 µg/mL (≈ 48.6 µM) throughout. In data set [4], this molecule displayed a CC50 of 14.9 µg/mL (≈ 22.6 µM). Moreover, in data set [5], the CC50 at 20 h came out at 15.4 µg/mL (≈ 23.4 µM).
